Test results as given in patent US6979686B1, “Substituted pyrazoles as p38 kinase inhibitors” (Pharmacia Corporation, priority 2001, dated 2005).
Where two headings read alike, the source gives them in different places.

Legend:
[1] = target: T1, human p38 kinase alpha (Homo sapiens, UniProt Q16539); assay: p38 kinase in vitro assay, phosphorylation of biotinylated PHAS-I with 32P-ATP; assay type: biochemical; details: for IC50: read-out: P38 alpha kinase IC50
T1 construct: GST (N, cleaved yes); made in house; host or cells: E. coli DH10B

[2] = system: TNF-α, U937 human histiocytic lymphoma cell line; assay: LPS stimulation of TNF production by U937 cells; assay type: cell-based; details: for inhibition at 1 µM: U-937, @ 1.0 uM
Experimental: Maintenance and Differentiation of the U937 Human Histiocytic Lymphoma Cell Line:
Fifty million cells in 100 ml media were induced to terminal monocytic differentiation by 24 hour incubation with 20 ng/ml phorbol 12-myristate 13-acetate (Sigma). The cells were washed by centrifugation (200×g for 5 min) and resuspended in 100 ml fresh medium. After 24-48 hours, the cells were harvested, centrifuged, and resuspended in culture medium at 2 million cells/ml.
LPS Stimulation of TNF Production by U937 Cells:
Compounds were prepared as 10 mM stock solutions in DMSO and diluted in culture medium to yield a final DMSO concentration of 0.1% in the cell assay. LPS (E coli, 100 ng/ml final concentration) was then added at a volume of 0.02 ml. After 4 hour incubation at 37° C., the amount of TNF-α released in the culture medium was quantitated by ELISA. Inhibitory potency is expressed as IC50 (μM).
In vitro whole cell assay for measuring the ability of the compounds to inhibit TNF production in human U937 cells stimulated with LPS are shown in the column identified as: • “U937 Cell IC50, uM or % inhib @ conc., (uM)”

[3] = in vitro P38-alpha kinase inhibition
[4] = Homo sapiens, U-937, TNF production, human U937 cells stimulated with LPS, read-out: U937 Cell IC50
[5] = Homo sapiens, TNF production, LPS-stimulated U937 cells, read-out: U937 Cell % inhib @ conc.
[6] = @ 1.0 uM, TNF production in human U937 cells stimulated with LPS
[7] = @ 1.0 uM, TNF production, U937 cells stimulated with LPS
[8] = Homo sapiens, TNF production, U937 cells stimulated with LPS, read-out: U937 Cell % inhib @ conc.
[9] = Homo sapiens, TNF production in human U937 cells stimulated with LPS, read-out: U937 Cell % inhib @ conc.

T1 sequence (Q16539 whole entry): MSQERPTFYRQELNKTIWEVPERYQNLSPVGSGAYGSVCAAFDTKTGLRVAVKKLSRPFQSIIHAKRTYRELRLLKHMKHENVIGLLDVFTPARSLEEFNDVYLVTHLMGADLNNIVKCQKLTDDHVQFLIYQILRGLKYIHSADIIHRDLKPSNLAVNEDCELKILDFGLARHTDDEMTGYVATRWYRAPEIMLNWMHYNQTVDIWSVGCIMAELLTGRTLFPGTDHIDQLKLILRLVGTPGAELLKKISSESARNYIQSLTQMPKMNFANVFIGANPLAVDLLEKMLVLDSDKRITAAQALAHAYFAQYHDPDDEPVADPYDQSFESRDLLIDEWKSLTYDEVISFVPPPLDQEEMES

O=C(NC(Cc1ccccc1)c1[nH]nc(-c2ccc(F)cc2)c1-c1ccncc1)c1ccc(F)cc1 (stereo not drawn) [Example B-0800]
IC50 [1, 3]: 1010 nM | IC50 [2, 4]: > 1 µM

CN(C)c1ccc(CNC(=O)NCCCc2[nH]nc(-c3ccc(F)cc3)c2-c2ccncc2)cc1 [Example B-1301]
IC50 ([1]; in vitro P38-alpha kinase): 120 nM | inhibition at 1 µM [2, 5]: 15%

CC(NC(=O)NC(C)c1[nH]nc(-c2ccc(F)cc2)c1-c1ccncc1)c1ccccc1 (stereo not drawn) [Example B-0591]
IC50 [1, 3]: 3590 nM | U937 Cell % inhib @ conc. (uM) [2, 6]: 29.0% @

O=C(NCc1[nH]nc(-c2ccc(F)cc2)c1-c1ccncc1)c1cccc(CCl)c1 [Example B-0065]
P38 alpha kinase % inhib @ conc. ([1]; @ 1.0 uM): 83% @ | U937 Cell % inhib @ conc. [2, 7]: 21.0% @

CC(C)=CC(=O)NCCc1[nH]nc(-c2ccc(F)cc2)c1-c1ccncc1 [Example B-0998]
P38 alpha kinase % inhib @ conc. (uM) ([1]; @ 1.0 uM): 67.0% @ | U937 Cell % inhib @ conc. (uM) [2, 7]: 25.0% @

CCCCCSc1cccc(NC(=O)Cn2nc(-c3ccc(F)cc3)c(-c3ccncc3)c2C)c1 [Example B-2447]
P38 alpha kinase IC50, uM or % inhib @ conc. (uM): % inhib ([1]; @ 10.0 uM): 94.0% @ | IC50 ([2]; TNF production, U937 cells stimulated with LPS, read-out: U937 Cell IC50, uM or % inhib @ conc. (uM): IC50): > 10 µM

COc1ccc(CC(=O)NCCCc2[nH]nc(-c3ccc(F)cc3)c2-c2ccncc2)cc1 [Example B-1177]
P38 alpha kinase % inhib @ conc. (uM) ([1]; @ 1.0 uM): 70.0% @ | IC50 ([2]; TNF production, human U937 cells stimulated with LPS, read-out: U937 Cell IC50): 1.16 µM

O=C(NC(Cc1ccccc1)c1[nH]nc(-c2ccc(F)cc2)c1-c1ccncc1)C1CCCC1 (stereo not drawn) [Example B-0820]
IC50 [1, 3]: 1640 nM | inhibition at 1 µM [2, 8]: 3%

O=C(NCCCc1[nH]nc(-c2ccc(F)cc2)c1-c1ccncc1)NC1CN2CCC1CC2 (stereo not drawn) [Example B-1309]
IC50 ([1]; in vitro P38-alpha kinase): 45 nM | IC50 [2, 4]: > 1 µM

CNC(=O)CCC(NC(=O)c1ccncc1)c1[nH]nc(-c2ccc(F)cc2)c1-c1ccncc1 (stereo not drawn) [Example B-0875]
IC50 [1, 3]: 2130 nM | inhibition at 1 µM [2, 8]: 8%

CC(NC(=O)c1cccc(C#N)c1)c1[nH]nc(-c2ccc(F)cc2)c1-c1ccncc1 (stereo not drawn) [Example B-0676]
IC50 [1, 3]: 2090 nM | U937 Cell % inhib @ conc. (uM) [2, 6]: 22.0% @

Cc1c(-c2ccncc2)c(-c2ccc(F)cc2)nn1CC(=O)NC1CCc2ccccc21 (stereo not drawn) [Example B-2318]
P38 alpha kinase % inhib @ conc. ([1]; @ 10.0 uM): 73.0% @ | U937 Cell % inhib @ conc. ([2]; @ 10.0 uM, TNF production, LPS-stimulated U937 cells): 25.0% @

NS(=O)(=O)c1ccc(CNC(=O)NCCCc2[nH]nc(-c3ccc(F)cc3)c2-c2ccncc2)cc1 [Example B-1308]
IC50 ([1]; in vitro P38-alpha kinase): < 100 nM | IC50 [2, 4]: > 1 µM

O=S(=O)(c1cccc(C(F)(F)F)c1)N1CCC(c2[nH]nc(-c3ccc(F)cc3)c2-c2ccncc2)CC1 [Example B-1468]
IC50 ([1]; in vitro P38-alpha kinase): 1610 nM | inhibition at 1 µM [2, 5]: 10%

CC(=O)NCCNC(=O)NCCCc1[nH]nc(-c2ccc(F)cc2)c1-c1ccncc1 [Example B-1305]
IC50 ([1]; in vitro P38-alpha kinase): 640 nM | U937 Cell % inhib @ conc. ([2]; @ 1.0 uM, TNF production, LPS-stimulated U937 cells): 9.0% @

O=C(NC(Cc1ccccc1)c1[nH]nc(-c2ccc(F)cc2)c1-c1ccncc1)c1ccc(F)c(F)c1F (stereo not drawn) [Example B-0813]
IC50 [1, 3]: 3020 nM | IC50 [2, 4]: > 1 µM

O=C(NCc1[nH]nc(-c2ccc(F)cc2)c1-c1ccncc1)[C@@H]1C[C@@H]1c1ccccc1 [Example B-0002]
inhibition at 1 µM ([1]; @ 1.0 uM, read-out: P38 alpha kinase % inhib @ conc.): 71% | inhibition at 10 µM ([2]; Homo sapiens, U-937, @ 10.0 uM, TNF production, U937 cells stimulated with LPS, read-out: U937 Cell % inhib @ conc.): 28%

CNC(=O)NC(Cc1ccccc1)c1[nH]nc(-c2ccc(F)cc2)c1-c1ccncc1 (stereo not drawn) [Example B-0730]
IC50 [1, 3]: 250 nM | inhibition at 1 µM [2, 9]: 11%

O=C(NCCc1[nH]nc(-c2ccc(F)cc2)c1-c1ccncc1)c1ccccc1 [Example B-1003]
P38 alpha kinase % inhib @ conc. (uM) ([1]; @ 1.0 uM): 74.0% @ | U937 Cell % inhib @ conc. (uM) [2, 7]: 29.0% @

CC(NS(=O)(=O)c1cccc2cnccc12)c1[nH]nc(-c2ccc(F)cc2)c1-c1ccncc1 (stereo not drawn) [Example B-0490]
IC50 [1, 3]: 910 nM | inhibition at 1 µM [2, 9]: 74%

CC(=O)OC(C)(C)C(=O)NC(C)c1[nH]nc(-c2ccc(F)cc2)c1-c1ccncc1 (stereo not drawn) [Example B-0535]
IC50 [1, 3]: 440 nM | IC50 ([2]; Homo sapiens, U-937, TNF production in human U937 cells stimulated with LPS, read-out: U937 Cell IC50): 0.87 µM

CC(=O)Nc1ccc(S(=O)(=O)NCCc2[nH]nc(-c3ccc(F)cc3)c2-c2ccncc2)cc1 [Example B-1059]
IC50 [1, 3]: 180 nM | inhibition at 1 µM [2, 8]: 24%

Cc1ccc(S(=O)(=O)NC(Cc2ccccc2)C(=O)NC(C)c2[nH]nc(-c3ccc(F)cc3)c2-c2ccncc2)cc1 (stereo not drawn) [Example B-0560]
IC50 [1, 3]: 2570 nM | inhibition at 1 µM [2, 9]: 31%

CC(NC(=O)c1cccs1)c1[nH]nc(-c2ccc(F)cc2)c1-c1ccncc1 (stereo not drawn) [Example B-0705]
IC50 [1, 3]: 440 nM | U937 Cell % inhib @ conc. (uM) [2, 6]: 21.0% @
